Data on 15 compounds can be found in US10556884B2, “Pesticidally active heterocyclic derivatives with sulphur containing substituents” (SYNGENTA PARTICIPATIONS AG, priority 2015, dated 2020).

Data set [1] relates to Diabrotica Balteata (Corn Root Worm). The data set is described as follows: Diabrotica balteata L2 larvae on maize sprouts. In kind it is in vivo. The following applies: 96 h, application rate of 200 ppm, L2 larvae, 4 days after infestation, read-out: effect in at least one of the two categories (mortality or growth inhibition). The protocol: Example B2: Diabrotica Balteata (Corn Root Worm)
Maize sprouts placed onto an agar layer in 24-well microtiter plates were treated with aqueous test solutions prepared from 10′000 ppm DMSO stock solutions by spraying. After drying, the plates were infested with L2 larvae (6 to 10 per well). The samples were assessed for mortality and growth inhibition in comparison to untreated samples 4 days after infestation.

The subject of data set [2] is Myzus persicae (Green Peach Aphid). Briefly: Myzus persicae feeding/contact activity, sunflower leaf discs. In kind it is in vivo. Particulars: foliar, 144 h, application rate of 200 ppm, feeding/contact, population of mixed ages, 6 days after infestation, read-out: mortality. The protocol:
Example B5: Myzus persicae (Green Peach Aphid): Feeding/Contact Activity
Sunflower leaf discs were placed onto agar in a 24-well microtiter plate and sprayed with aqueous test solutions prepared from 10′000 ppm DMSO stock solutions. After drying, the leaf discs were infested with an aphid population of mixed ages. The samples were assessed for mortality 6 days after infestation.

For data set [3], the system named is Frankliniella occidentalis (Western Flower Thrips). Briefly: Frankliniella occidentalis feeding/contact activity, sunflower leaf discs. It is filed as in vivo. Particulars: foliar, 168 h, application rate of 200 ppm, population of mixed ages, 7 days after infestation. The method, then:
Example B4: Frankliniella occidentalis (Western Flower Thrips): Feeding/Contact Activity
Sunflower leaf discs were placed on agar in 24-well microtiter plates and sprayed with aqueous test solutions prepared from […] stock solutions. After drying the leaf discs were infested with a Frankliniella population of mixed ages. The samples were assessed for mortality 7 days after infestation.

For data set [4], the system named is Myzus persicae (Green Peach Aphid). Briefly: Myzus persicae systemic activity, pea seedlings. In kind it is in vivo. Particulars: 144 h, test rate of 24 ppm, 6 days after placing seedlings into test solutions.
In data set [5] the test system is Euschistus heros (Neotropical Brown Stink Bug). Briefly: Euschistus heros N2 nymphs on soybean leaves. It is filed as in vivo. Particulars: 120 h, application rate of 200 ppm, 5 days after infestation, read-out: effect in at least one of the two categories (mortality or growth inhibition).
For data set [6], the system named is Plutella xylostella (Diamond Back Moth). The data set is described as follows: Plutella xylostella L2 larvae on artificial diet. The following applies: 120 h, application rate of 200 ppm, L2 larvae, 5 days after infestation, read-out: effect in at least one of the two categories (mortality or growth inhibition). It is filed as in vivo. The method, then: Example B7: Plutella xylostella (Diamond Back Moth)
24-well microtiter plates with artificial diet were treated with aqueous test solutions prepared from 10′000 ppm DMSO stock solutions by pipetting. After drying, the plates were infested with L2 larvae (10 to 15 per well). The samples were assessed for mortality and growth inhibition in comparison to untreated samples 5 days after infestation.

Data set [7] concerns Spodoptera littoralis (Egyqptian Cotton Leaf Worm). Briefly: Spodoptera littoralis L1 larvae on sprayed cotton leaf discs. The following applies: foliar, 72 h, application rate of 200 ppm, L1 larvae, 3 days after infestation, read-out: control (mortality, anti-feeding effect, growth inhibition). It is filed as in vivo. The protocol: Example B8: Spodoptera littoralis (Egyqptian Cotton Leaf Worm)
Cotton leaf discs were placed onto agar in 24-well microtiter plates and sprayed with aqueous test solutions prepared from 10′000 ppm DMSO stock solutions. After drying the leaf discs were infested with five L1 larvae. The samples were assessed for mortality, anti-feeding effect, and growth inhibition in comparison to untreated samples 3 days after infestation. Control of Spodoptera littoralis by a test sample is given when at least one of the categories mortality, anti-feedant effect, and growth inhibition is higher than the untreated sample.

Data set [8] deals with Tetranychus urticae (Two-Spotted Spider Mite). The data set is described as follows: Tetranychus urticae feeding/contact activity, bean leaf discs. It is filed as in vivo. The following applies: foliar, 192 h, application rate of 200 ppm, mixed population (mobile stages), 8 days after infestation. The method, then: Example B10: Tetranychus urticae (Two-Spotted Spider Mite): Feeding/Contact Activity
Bean leaf discs on agar in 24-well microtiter plates were sprayed with aqueous test solutions prepared from 10′000 ppm DMSO stock solutions. After drying the leaf discs were infested with a mite population of mixed ages. The samples were assessed for mortality on mixed population (mobile stages) 8 days after infestation.

Data set [9] deals with Bemisia tabaci (Cotton White Fly). The data set is described as follows: Bemisia tabaci feeding/contact activity, cotton leaf discs. The following applies: foliar, 144 h, application rate of 200 ppm, adult white flies, 6 days after incubation. It is filed as in vivo. The method, then: Example B1: Bemisia tabaci (Cotton White Fly): Feeding/Contact Activity
Cotton leaf discs were placed on agar in 24-well microtiter plates and sprayed with aqueous test solutions prepared from 10′000 ppm DMSO stock solutions. After drying the leaf discs were infested with adult white flies. The samples were checked for mortality 6 days after incubation.

The test system of data set [10] is Thrips tabaci (Onion Thrips). The data set is described as follows: Thrips tabaci feeding/contact activity, sunflower leaf discs. In kind it is in vivo. Particulars: foliar, 144 h, application rate of 200 ppm, population of mixed ages, 6 days after infestation. The protocol: Example B11: Thrips tabaci (Onion Thrips) Feeding/Contact Activity
Sunflower leaf discs were placed on agar in 24-well microtiter plates and sprayed with aqueous test solutions prepared from 10′000 ppm DMSO stock solutions. After drying the leaf discs were infested with a thrips population of mixed ages. The samples were assessed for mortality 6 days after infestation.

Where only a bound is given, the exact number is not on record here.

As a reminder, the mortality is the percentage killed. As for `CCS(=O)(=O)c1cc(NC(=O)C2CC2)cnc1-c1nnc(-c2cc(C(F)(F)F)ccn2)n1C` [A2, N-[5-ethylsulfonyl-6-[4-methyl-5-[4-(trifluoromethyl)-2-pyridyl]-1,2,4-triazol-3-yl]-3-pyridyl]cyclopropanecarboxamide], the percent effect (mortality or growth inhibition) at 200 ppm in data set [1] was no less than 80%. Besides, the mortality at 200 ppm in [2] and in data set [3] was no less than 80% each time. Further, in data set [4], the mortality at 24 ppm was no less than 80%.
As for `CCS(=O)(=O)c1ccc(NC(=O)C2CC2)nc1-c1nnc(-c2cc(C(F)(F)F)ccn2)n1C` [A6, N-[5-ethylsulfonyl-6-[4-methyl-5-[4-(trifluoromethyl)-2-pyridyl]-1,2,4-triazol-3-yl]-2-pyridyl]cyclopropanecarboxamide], the mortality at 200 ppm in data set [2] and in [3] was no less than 80% throughout. In addition, the mortality at 24 ppm in [4] was no less than 80%.
Take `CCS(=O)(=O)c1cc(N(C)C(=O)C2CC2)cnc1-c1nnc(-c2cc(C(F)(F)F)ccn2)n1C` [A7, N-[5-ethylsulfonyl-6-[4-methyl-5-[4-(trifluoromethyl)-2-pyridyl]-1,2,4-triazol-3-yl]-3-pyridyl]-N-methyl-cyclopropanecarboxamide]: the percent effect (mortality or growth inhibition) at 200 ppm in [5] and in [6] was no less than 80% throughout. Besides, the mortality at 200 ppm in [2] and in data set [3] was no less than 80% in each case. For the same compound, in data set [4], the mortality at 24 ppm was no less than 80%.
For `CCS(=O)(=O)c1cc(NC2CC2)cnc1-c1nnc(-c2cc(C(F)(F)F)ccn2)n1C` [A9, N-cyclopropyl-5-ethylsulfonyl-6-[4-methyl-5-[4-(trifluoromethyl)-2-pyridyl]-1,2,4-triazol-3-yl]pyridin-3-amine], in data set [5], the percent effect (mortality or growth inhibition) at 200 ppm was no less than 80%. Besides, the mortality at 200 ppm in [7], in data set [2] and in data set [8] was no less than 80% throughout. For the same compound, in data set [4], the mortality at 24 ppm was no less than 80%.
As to `CCS(=O)(=O)c1ccc(C(=O)N(C)C2CC2)nc1-c1nnc(-c2cc(C(F)(F)F)ccn2)n1C` [A17, N-cyclopropyl-5-ethylsulfonyl-N-methyl-6-[4-methyl-5-[4-(trifluoromethyl)-2-pyridyl]-1,2,4-triazol-3-yl]pyridine-2-carboxamide], the mortality at 200 ppm in [9] and in data set [2] was no less than 80% each time. Also, the mortality at 24 ppm in data set [4] is no less than 80%.
As for `CCS(=O)(=O)c1cc(C(=O)NC2CC2)cnc1-c1nnc(-c2cc(C(F)(F)F)ccn2)n1C` [A18, N-cyclopropyl-5-ethylsulfonyl-6-[4-methyl-5-[4-(trifluoromethyl)-2-pyridyl]-1,2,4-triazol-3-yl]pyridine-3-carboxamide], the mortality at 200 ppm in data set [8] is no less than 80%. The compound also yielded a mortality at 24 ppm in [4] of no less than 80%.
As a reminder, the melting point is the temperature, or range, at which the solid turns liquid. `CCS(=O)(=O)c1cc(N(C(=O)C2CC2)S(C)(=O)=O)cnc1-c1nnc(-c2cc(C(F)(F)F)ccn2)n1C` [A20, N-[5-ethylsulfonyl-6-[4-methyl-5-[4-(trifluoromethyl)-2-pyridyl]-1,2,4-triazol-3-yl]-3-pyridyl]-N-methylsulfonyl-cyclopropanecarboxamide] gave a melting point of 229 to 231 °C.
Same read-out and setting: with `CCS(=O)(=O)c1cc(C(=O)NC2(C#N)CC2)cnc1-c1nnc(-c2cc(C(F)(F)F)ccn2)n1C` [A23, N-(1-cyanocyclopropyl)-5-ethylsulfonyl-6-[4-methyl-5-[4-(trifluoromethyl)-2-pyridyl]-1,2,4-triazol-3-yl]pyridine-3-carboxamide] the figure was 211 to 213 °C.
Regarding `CCS(=O)(=O)c1cc(C(=O)NCC#N)cnc1-c1nnc(-c2cc(C(F)(F)F)ccn2)n1C` [A26, N-(cyanomethyl)-5-ethylsulfonyl-6-[4-methyl-5-[4-(trifluoromethyl)-2-pyridyl]-1,2,4-triazol-3-yl]pyridine-3-carboxamide], the mortality at 200 ppm in data set [2] and in [8] was no less than 80% in each case. Moreover, the mortality at 24 ppm in [4] is no less than 80%.
Consider `CCS(=O)(=O)c1cc(N(C)N)cnc1-c1nnc(-c2cc(C(F)(F)F)ccn2)n1C` [A30, 1-[5-ethylsulfonyl-6-[4-methyl-5-[4-(trifluoromethyl)-2-pyridyl]-1,2,4-triazol-3-yl]-3-pyridyl]-1-methyl-hydrazine], for which, in [5], the percent effect (mortality or growth inhibition) at 200 ppm is no less than 80%. In data set [2], the mortality at 200 ppm is no less than 80%.
In turn, `CCS(=O)(=O)c1ccc(NCC(F)(F)F)nc1-c1nnc(-c2cc(C(F)(F)F)ccn2)n1C` [A32, 5-ethylsulfonyl-6-[4-methyl-5-[4-(trifluoromethyl)-2-pyridyl]-1,2,4-triazol-3-yl]-N-(2,2,2-trifluoroethyl)pyridin-2-amine] had a mortality at 200 ppm in data set [8] of no less than 80%.
In the case of `CCS(=O)(=O)c1ccc(N)nc1-c1nnc(-c2cc(C(F)(F)F)ccn2)n1C` [A36, 5-ethylsulfonyl-6-[4-methyl-5-[4-(trifluoromethyl)-2-pyridyl]-1,2,4-triazol-3-yl]pyridin-2-amine], the percent effect (mortality or growth inhibition) at 200 ppm in data set [5] is no less than 80%. Further, in [2], the mortality at 200 ppm is no less than 80%. The compound further registered a mortality at 24 ppm in data set [4] of no less than 80%.
On to `CCS(=O)(=O)c1ccc(NC(=O)OC(C)(C)C)nc1-c1nnc(-c2cc(C(F)(F)F)ccn2)n1C` [A37, tert-butyl N-[5-ethylsulfonyl-6-[4-methyl-5-[4-(trifluoromethyl)-2-pyridyl]-1,2,4-triazol-3-yl]-2-pyridyl]carbamate], for which the mortality at 200 ppm in [7] and in data set [3] was no less than 80% each time. Besides, in [6], the percent effect (mortality or growth inhibition) at 200 ppm was no less than 80%. This compound registered a mortality at 24 ppm in data set [4] of no less than 80%.
In the case of `CCS(=O)(=O)c1cc(Cl)c(N)nc1-c1nnc(-c2cc(C(F)(F)F)ccn2)n1C` [A42, 3-chloro-5-ethylsulfonyl-6-[4-methyl-5-[4-(trifluoromethyl)-2-pyridyl]-1,2,4-triazol-3-yl]pyridin-2-amine], the mortality at 200 ppm in data set [10], in [7], in data set [9] and in data set [2] was no less than 80% in each case. The percent effect (mortality or growth inhibition) at 200 ppm in data set [1] and in data set [6] was no less than 80% throughout. The mortality at 24 ppm in data set [4] was no less than 80%.
For the compound `CCS(=O)(=O)c1cc(Br)c(N)nc1-c1nnc(-c2cc(C(F)(F)F)ccn2)n1C` [A43], the mortality at 200 ppm in [10], in data set [7], in data set [9] and in [2] was no less than 80% throughout. Also, the percent effect (mortality or growth inhibition) at 200 ppm in data set [1] and in data set [6] was no less than 80% throughout. Moreover, in [4], the mortality at 24 ppm was no less than 80%.
